Data from patent US20170121295A1, “POLYCYCLIC LPA1 ANTAGONIST AND USES THEREOF” (AMIRA PHARMACEUTICALS, INC., priority 2010, published 2017).
pIC50: −log10 of the molar value.

Experiments:
[1] = Metabolite identification in hepatocytes; format: in vitro ADME, rat, dog, monkey, human; settings: rat, dog or human hepatocytes
Method: Rat, dog, monkey, or human hepatocytes were thawed according to the supplier's instructions. Cells were counted using the Trypan Blue method, and then diluted to 1×10^6 viable cells/ml with KB medium. Compound 1 was tested at 30 μM and incubated for up to 2 hours in rat hepatocytes and 4 hours in dog, monkey or human hepatocytes at 37° C. Reactions were terminated with addition of 3 times incubation volume of acetonitrile, centrifuged, and supernatants were transferred, nitrogen blow dried and reconstituted in 50% acetonitrile in water for LC/MS analysis.
LC/MS/MS analysis was carried out with a Sciex API-4000Qtrap tandem mass spectrometer (Applied Biosystems/Life Technologies, Carlsbad, Calif.) interfaced to a high-performance liquid chromatography system consisting of an Agilent 1200 series pump (Foster City, Calif.) and a LEAP Technologies PAL autoinjector (Carrboro, N.C.).
(§1) Parent/metabolite analysis was conducted in the positive ion mode (ESI) by multiple reaction monitoring of parent. The mobile phases contained 10 mM ammonium acetate in water with 0.05% formic acid (solvent A) and 10 mM ammonium acetate in 50% acetonitrile/50% methanol with 0.05% formic acid (solvent B). For Compound 1, the flow rate was maintained at 1 mL/min and the total run time was 2.5 min. Analytes were separated on a YMC ODS-AQ column (2.1×150 mm; 3 μm) and eluted with a linear gradient as follows: • 1. mobile phase was held for 0.5 min at 5% B, • 2. B was increased from 5% to 95% over the next 0.2 min, • 3. B was held constant for 1.3 min at 95%, and • 4. B was returned to the initial gradient conditions.
GSH adducts were investigated in microsomes, hepatocytes and rat bile using several methods including the neutral loss of pyroglutamate (129 Da) as well as a precursor ion scans of Compound 1 (105 Da, 318 Da and 438 Da).
For metabolite quantitation, the flow rate was maintained at 0.25 mL/min and the total run time was 60 min. Analytes were separated using a linear gradient as follows: • 1. mobile phase was held for 5 min at 5% B, • 2. B was increased from 5% to 95% over the next 45 min. • 3. […]

[2] = Thermodynamic aqueous solubility; format: physicochemical; settings: water, equilibrated at 25° C. for 24 hours
Method: Aqueous solubility was determined by suspending sufficient compound in water to give a maximum final concentration of ≧10 mg·ml−1 of the parent free-form of the compound. The suspension was equilibrated at 25° C. for 24 hours then the pH was measured. The suspension was then filtered through a glass fiber C filter into a 96 well plate unless stated otherwise. The filtrate was then diluted by a factor of 101. Quantification was by HPLC with reference to a standard solution of approximately 0.25 mg·ml^−1 in DMSO. Different volumes of the standard, diluted and undiluted sample solutions were injected. The solubility was calculated using the peak areas determined by integration of the peak found at the same retention time as the principal peak in the standard injection.
Analysis was performed on an Agilent HP1100 series system equipped with a diode array detector and using ChemStation software vB.02.01-SR1.

LPA4 = LPA4 (Homo sapiens, UniProt Q99677); assay: LPA4 Calcium Flux Assay; format: cell-based; settings: read-out: Ca Flux IC50 LPA4
Chain of LPA4 (Q99677 whole entry, species assumed): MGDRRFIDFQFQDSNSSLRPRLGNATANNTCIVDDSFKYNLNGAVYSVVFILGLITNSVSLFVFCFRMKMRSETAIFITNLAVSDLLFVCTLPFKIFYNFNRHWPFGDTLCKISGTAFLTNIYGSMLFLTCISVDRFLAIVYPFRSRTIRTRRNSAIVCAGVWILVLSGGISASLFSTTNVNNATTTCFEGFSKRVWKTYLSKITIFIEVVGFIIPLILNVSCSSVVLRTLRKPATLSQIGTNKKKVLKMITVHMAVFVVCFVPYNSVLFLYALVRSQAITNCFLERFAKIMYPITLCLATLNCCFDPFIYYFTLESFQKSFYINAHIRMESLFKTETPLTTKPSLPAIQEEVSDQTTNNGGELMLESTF

[3] = Pharmacokinetics in Male Beagle Dogs; format: in vivo; settings: free acid dosed orally at 5 mg/kg
Method: The pharmacokinetics of Compound 1 and Compound 2 was assessed in male Beagle dogs.
Dosing of male Beagle dogs (n=3) was performed. Compound 1 or Compound 2 was dosed intravenously at 2 mg/kg (fasted) and orally (fasted or non-fasted) at 5 mg/kg. In fasted animals, food was withheld a minimum of 12 hours prior to dosing and then returned 4 hours post-dose. Non-fasted animals were allowed to feed 1 hour prior to dosing ad libitum. Compound 2 capsules were given by oral gavage in the fasted state. Plasma samples were collected by Perry Scientific study personnel.
The capsules are noted in Table 25 below. Capsules were size 0 gelatin (Capsugel, Peapack, N.J.). Tablet formulations are noted in Example 24.
For the clinical drug product oral solution of active agent (1.67 mg/mL), sucralose (0.5% w/w) and cherry flavor (0.5% w/w) is added to the formulation as a sweetener and taste masking agent, respectively to a 0.5% methocel aqueous solution.
Blood samples (approximately 1 mL total blood) were taken from each dog at pre-dose, and an initial time of 5 or 15 min and then various time points up to 24 hours post-dose (10-11 samples per animal). Samples were collected on wet ice in tubes containing potassium EDTA. After each blood draw, the cannula was flushed with an equivalent volume of heparinized saline (0.1 mL at 40 units/mL). Plasma samples, prepared by centrifugation of whole blood, were stored frozen (−80° C.) prior to analysis.

[4] = Metabolites generated in vivo (rat bile and urine, rat and dog plasma)
Method: Compound 2 (2 mg/kg) was administered intravenously (IV) to fasted rats as a solution in 0.9% saline via a bolus injection into the jugular vein (2 mg/mL; […]).
Rats with surgically placed bile duct and jugular vein cannula were purchased from Charles River Laboratories and allowed to acclimate for 2 days. Compound 2 was intravenously dosed (2 mg/kg) to three rats as a solution in 0.9% saline (2 mg/mL; 1 mL/kg). Bile samples were collected at time-points 0-2, 2-5 and 5-8, and urine samples were collected at time-points 0-4 and 4-8 hrs post-dose in 8 mL scintillation vials and stored at −40° C. until analysis.
Concentrations of Compound 1 in rat plasma were determined by LC-MS/MS after protein precipitation. Rat plasma (100 μL) was treated with 400 μL of internal standard solution (ISTD, buspirone in acetonitrile containing 1.5% acetic acid) to precipitate proteins. Samples were vortexed and then centrifuged for 10 min at approximately 4,000 rpm (3700×g) at 4° C. (Beckman centrifuge, Brea, Calif.).
as §1
For metabolite quantitation, the flow rate was maintained at 0.25 mL/min and the total run time was 60 min. Analytes were separated using a linear gradient as follows: • 1. mobile phase was held for 5 min at 5% B, • 2. B was increased from 5% to 95% over the next 45 min. • 3. B was held constant for 5 min at 95%, and • 4. B was returned to the initial gradient conditions

GSH adduct in hepatocytes [1]: No GSH adduct was observed | solubility at 24 h ([2]; 25 °C, thermodynamic from solid, read-out: Solubility (mg/ml, free form equivalent)): 0.028 mg/mL | Solubility (mg/ml, free form equivalent) ([2]; listed as free acid): 0.031 mg/mL | pIC50 (LPA4): < 6.00 | exposure [3]: reduced exposure | bioavailability ([3]; male, Beagle, dog, plasma, po, 5 mg/kg, read-out: apparent oral bioavailability): 19% | GSH adduct in rat bile ([4]; in vivo): neither GSH adduct is observed
Compound: Cc1noc(-c2ccc(-c3ccc(C4(C(=O)O)CC4)cc3)cc2)c1NC(=O)O[C@H](C)c1ccccc1 [Compound 1, 1-{4′-[3-methyl-4-((R)-1-phenyl-ethoxycarbonylamino)-isoxazol-5-yl]-biphenyl-4-yl}-cyclopropanecarboxylic acid]
primary amine (decarboxylation) and its secondary metabolites ([4]; plasma (rat & dog), rat bile or urine): Neither the primary amine (i.e. decarboxylation) nor its secondary metabolites (glycosylation or glucuronidation) are observed
